Test [1] concerns the target T1, Beta-secretase 1 (Homo sapiens, UniProt P56817). Briefly: Inhibition of BACE1 by FRET assay. Further details: concentration or dose not given beside the values. As to conditions: concentration not given here.
The target in test [2] is T1, Beta-secretase 1. In words: Inhibition of BACE1 at 20 ug/ml by FRET assay.

Where only a bound is given, the exact number is not on record here.

T1 sequence (P56817 whole entry): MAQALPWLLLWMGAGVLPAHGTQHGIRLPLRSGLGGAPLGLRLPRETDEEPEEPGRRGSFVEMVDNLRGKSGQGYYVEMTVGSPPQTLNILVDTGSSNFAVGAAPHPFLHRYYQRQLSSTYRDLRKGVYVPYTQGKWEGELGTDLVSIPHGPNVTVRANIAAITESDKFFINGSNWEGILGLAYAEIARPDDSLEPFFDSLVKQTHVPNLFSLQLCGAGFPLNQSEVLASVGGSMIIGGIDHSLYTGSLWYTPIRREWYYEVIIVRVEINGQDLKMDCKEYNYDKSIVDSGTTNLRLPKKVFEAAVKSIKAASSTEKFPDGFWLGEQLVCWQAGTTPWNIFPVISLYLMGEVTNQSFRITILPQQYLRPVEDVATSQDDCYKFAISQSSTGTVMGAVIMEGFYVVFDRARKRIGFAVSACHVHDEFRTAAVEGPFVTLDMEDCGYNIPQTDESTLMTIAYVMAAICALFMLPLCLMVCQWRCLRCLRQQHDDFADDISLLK

As for `O=C(Cc1cccc([N+](=O)[O-])c1)Nc1cc(Br)ccc1OCCN1CCOCC1`, in test [1], the inhibition worked out at 20.3%.

`O=C(Cc1ccccc1Cl)Nc1cc(Br)ccc1OCCN1CCOCC1` yielded an inhibition in test [1] of 36.8%.

As for `O=C(Cc1ccccc1Cl)Nc1cc(Br)ccc1OCCNC1CC1`, the inhibition in test [1] turned out to be 77.1%. The compound also had an IC50 in test [2] of 37.6 µM.

In turn, `CCCCCCNCCOc1ccc(Br)cc1NC(=O)Cc1ccccc1Cl` returned an inhibition in test [1] of 79.4%. Further, in test [2], half-maximal inhibition (IC50) required 29.4 µM.

`O=C(Cc1ccccc1Cl)Nc1cc(Br)ccc1OCCNC1CCCCC1` displayed an inhibition in test [1] of 87.7%. The same compound showed an IC50 in test [2] of more than 42.8 µM.

Consider `COc1cccc(CC(=O)Nc2cc(Br)ccc2OCCN2CCOCC2)c1`, for which the inhibition in test [1] is 20.9%.

`O=C(Cc1ccccc1)Nc1cc(Br)ccc1OCCN1CCOCC1` had an inhibition in test [1] of 24.5%.

Compound `NCCCCCCNCCOc1ccc(Br)cc1NC(=O)Cc1ccccc1Cl` showed a concentration for half-maximal inhibition (IC50) in test [2] of 27.9 µM.

With `NCCCNCCOc1ccc(Br)cc1NC(=O)Cc1ccccc1Cl`, the inhibition in test [1] turned out to be 77.9%. This compound also came in with a concentration for half-maximal inhibition (IC50) in test [2] of more than 45.2 µM.

Compound `O=C(Cc1ccccc1Cl)Nc1cc(Br)ccc1OCCN1CCCCC1` returned an inhibition in test [1] of 61.9%. In test [2], this compound had an IC50 of more than 44.2 µM.

As for `O=C(Cc1ccccc1Cl)Nc1cc(Br)ccc1OCCNCCCCCO`, the inhibition in test [1] is 67.5%. In addition, in test [2], the IC50 was more than 42.5 µM.

The term inhibition denotes the percentage by which the read-out fell short of the control. Usually IC50 stands for the concentration that inhibits the measured activity by half.

The values are drawn from ChEMBL document CHEMBL1212843, “Dual-target-directed 1,3-diphenylurea derivatives: BACE 1 inhibitor and metal chelator against Alzheimer's disease” (Bioorg Med Chem, 2010).
